Like-named read-outs stand apart in the source and are kept apart here.
Key:
Assay type in all cases: in vivo
Aulacophora femoralis = experiment: whole plant or invertebrate; conditions: in Cucumis sativus, 168 h, read-out: mortality (control efficacy)
Text: The test solution has been prepared as described in biological test example 1.
Cucumber leaves were immersed in a test solution that had been diluted to a predetermined concentration with water. The leaves were air-dried and then put in a plastic cup containing sterilized black soil. 5 Aulacophora femoralis second instar larvae were released in the cup.

Musca domestica = experiment: whole plant or invertebrate; conditions: 48 h, read-out: activity (mortality in %)
Experimental: (§1) Solvent: dimethyl sulfoxide
Prior to the assay, a piece or kitchen sponge is soaked with a mixture of sugar and compound solution and placed into a container. 10 adults (Musca domestica) are placed into the container and closed with a perforated lid. After 2 days, mortality in % is determined. 100% means that all the flies have been killed; 0% means that none of the flies have been killed.

Lucilia cuprina larvae = experiment: whole plant or invertebrate; conditions: 48 h, read-out: activity (mortality in %)
Experimental: as §1
Approximately 20-30 (Lucilia cuprina larvae) are transferred into a test tube containing 1 cm^3 of minced horse meat and 0.5 ml aqueous dilution of test compound. After 2 days, mortality in % is determined.

Ctenocephalides felis = experiment: whole plant or invertebrate; conditions: 48 h, read-out: activity (mortality in %)
Experimental: as §1
Approximately 10 to 15 adult unfed (Ctenocepahlides felis) are placed in flea chambers. […] The blood chamber is heated to 37° C. whereas the flea chamber is kept at room temperature. After 2 days, mortality in % is determined. 100% means that all the fleas have been killed; 0% means that none of the fleas have been killed.

Boophilus microplus [1] = experiment: whole plant or invertebrate; conditions: Rhipicephalus microplus, 168 h, read-out: activity (mortality in %; 100% means all eggs infertile)
Experimental: as §1
Five adult engorged female ticks (Boophilus microplus) are injected with compound solution into the abdomen. Ticks are transferred into replica plates and incubated in a climate chamber for a period of time. Egg deposition of fertile eggs is monitored. After 7 days, mortality in % is determined. 100% means that all eggs are infertile; 0% means that all eggs are fertile.

Boophilus microplus [2] = experiment: Boophilus microplus test (dip); conditions: Rhipicephalus microplus, 168 h, read-out: activity (mortality in %)
Experimental: as §1
Eight to ten adult engorged female Boophilus microplus ticks are placed in perforated plastic beakers and immersed in aqueous compound solution for one minute. Ticks are transferred to a filter paper in a plastic tray. Egg deposition of fertile eggs is monitored after. After 7 days, mortality in % is determined. 100% means that all the ticks have been killed; 0% means that none of the ticks have been killed.

Phaedon cochleariae = Phaedon cochleariae test (spray application); conditions: in Brassica rapa, foliar, 168 h, read-out: activity (mortality in %)
Experimental: Solvent: 78.0 parts by weight of acetone • • 1.5 parts by weight of dimethylformamide Emulsifier: 0.5 parts by weight of alkylaryl polyglycolether
To produce a suitable preparation of active compound, 1 part by weight of active compound is mixed with the stated amount of solvent and emulsifier, and the concentrate is diluted with emulsifier-containing water to the desired concentration. Chinese cabbage (Brassica pekinesis) leaf-disks are sprayed with a preparation of the active ingredient of the desired concentration. Once dry, the leaf disks are infested with mustard beetle larvae (Phaedon cochleariae).
After 7 days, mortality in % is determined. 100% means that all beetle larvae have been killed and 0% means that none of the beetle larvae have been killed.

Spodoptera frugiperda = Spodoptera frugiperda test (spray application); conditions: 168 h, application rate 500 g/ha, sprayed maize leaf sections, larvae, 7 days
Text: Solvent: 78.0 parts by weight acetone • 1.5 parts by weight dimethylformamide Wetting agent 0.5 parts by weight alkylarylpolyglcolether
To produce a suitable preparation of the active compound, 1 part by weight of active compound is mixed with the stated amount of solvent and emulsifier, and the concentrate is dilutes with emulsifier-containing water to the desired concentration.
Maize (Zea mais) leaf sections are sprayed with a preparation of the active ingredient of the desired concentration. Once dry, the leaf sections are infested with fall armyworm larvae (Spodoptera frugiperda). After 7 days, mortality in % is determined. 100% means that all caterpillars have been killed and 0% means that none of the caterpillars have been killed.

Tetranychus urticae = experiment: Test on Tetranychus urticae (spray test); conditions: active compound concentration 100 ppm; adult mites on pinto bean sprayed; 7 days
Experimental: The test solution has been prepared as described in biological test example 1. 50 to 100 adult Tetranychus urticae were placed on pinto bean leaves at true leaf stage having two main leaves that had been grown in a pot (6 cm diameter). After 1 day, a generous amount of the test solution which has been diluted with water to the predetermined concentration was sprayed thereto using a spray gun.
After keeping the pot in a green house for 7 days, acaricidal ratio was calculated. 100% means that all the mites have been killed; 0% means that none of the mites have been killed.

| Compound | mortality at 100 ppm (Aulacophora femoralis) | mortality at 100 ppm (Musca domestica) | mortality at 100 ppm (Lucilia cuprina larvae; in Equus caballus) | mortality at 100 ppm (Ctenocephalides felis; in Bos taurus) | mortality at 0.02 mg (Boophilus microplus [1]) | other results |
| --- | --- | --- | --- | --- | --- | --- |
| O=C1OCc2cc(C3=NOC(c4cc(Cl)cc(Cl)c4)(C(F)(F)F)C3)ccc21 (centres unmarked) [Example 1-2, 5-[5-(3,5-dichlorophenyl)-5-(trifluoromethyl)-4,5-dihydroisoxazol-3-yl]-2-benzofuran-1(3H)-one] | 100% | ≥ 80% | ≥ 80% | ≥ 80% | ≥ 80% | mortality at 100 ppm (Boophilus microplus [2]): ≥ 80%; mortality at 500 g/ha (Phaedon cochleariae): 80%; mortality at 500 g/ha (Spodoptera frugiperda): ≥ 80% |
| O=C1c2ccc(C3=NOC(c4cc(Cl)cc(Cl)c4)(C(F)(F)F)C3)cc2CN1Cc1ccccn1 (centres unmarked) [Example 1-58] | – | – | – | – | – | mortality (acaricidal ratio) (Tetranychus urticae): at least 98% |
| FC(F)(F)C1(c2cc(Cl)cc(Cl)c2)CC(c2ccc3c(c2)COC3)=NO1 (centres unmarked) [Example 1-131, 5-(3,5-dichlorophenyl)-3-(1,3-dihydro-2-benzofuran-5-yl)-5-(trifluoromethyl)-4,5-dihydroisoxazole] | 100% | ≥ 80% | ≥ 80% | ≥ 80% | ≥ 80% | – |
| CC(=O)N1Cc2ccc(C3=NOC(c4cc(Cl)cc(Cl)c4)(C(F)(F)F)C3)cc2C1 (centres unmarked) [Example 1-151, 1-{5-[5-(3,5-dichlorophenyl)-5-(trifluoromethyl)-4,5-dihydroisoxazol-3-yl]-1,3-dihydro-2H-isoindol-2-yl}ethanone] | 100% | – | ≥ 80% | – | ≥ 80% | – |
| CC(=O)N1Cc2cc(C3=NOC(c4cc(Cl)cc(Cl)c4)(C(F)(F)F)C3)ccc2C1=O (centres unmarked) [Example 1-221, 2-acetyl-5-[5-(3,5-dichlorophenyl)-5-(trifluoromethyl)-4,5-dihydroisoxazol-3-yl]-2,3-dihydro-1H-isoindol-1-one] | 100% | – | – | – | – | – |
| N=C1OCc2cc(C3=NOC(c4cc(Cl)cc(Cl)c4)(C(F)(F)F)C3)ccc21 (centres unmarked) [Example 1-232, 5-[5-(3,5-dichlorophenyl)-5-(trifluoromethyl)-4,5-dihydroisoxazol-3-yl]-2-benzofuran-1(3H)-imine] | 100% | ≥ 80% | ≥ 80% | ≥ 80% | ≥ 80% | – |
| CC(=O)/N=C1\c2ccc(C3=NOC(c4cc(Cl)cc(Cl)c4)(C(F)(F)F)C3)cc2CN1Cc1ccccn1 (centres unmarked) [Example 1-235, N-[(1E)-5-[5-(3,5-dichlorophenyl)-5-(trifluoromethyl)-4,5-dihydroisoxazol-3-yl]-2-(pyridin-2-ylmethyl)-2,3-dihydro-1H-isoindol-1-ylinden]acetamide] | – | ≥ 80% | ≥ 80% | ≥ 80% | ≥ 80% | – |
| N#Cc1ccc2cc(C3=NOC(c4cc(Cl)cc(Cl)c4)(C(F)(F)F)C3)ccc2n1 (centres unmarked) [Example 1-255, 6-[5-(3,5-dichlorophenyl)-5-(trifluoromethyl)-4,5-dihydroisoxazol-3-yl]quinolin-2-carbonitrile] | – | ≥ 80% | ≥ 80% | ≥ 80% | ≥ 80% | – |
| CC(=O)NC1CCc2cc(C3=NOC(c4cc(Cl)cc(Cl)c4)(C(F)(F)F)C3)ccc21 (centres unmarked) [Example 3-3, N-{5-[5-(3,5-dichlorophenyl)-5-(trifluoromethyl)-4,5-dihydroisoxazol-3-yl]-2,3-dihydro-1H-inden-1-yl}acetamide] | 100% | ≥ 80% | ≥ 80% | ≥ 80% | ≥ 80% | mortality at 100 ppm (Boophilus microplus [2]): ≥ 80% |
| CCNC(=O)NC1CCc2cc(C3=NCC(c4cc(Cl)cc(Cl)c4)(C(F)(F)F)C3)ccc21 (centres unmarked) [Example 3-112, 1-{5-[3-(3,5-dichlorophenyl)-3-(trifluoromethyl)-3,4-dihydro-2H-pyrrol-5-yl]-2,3-dihydro-1H-inden-1-yl}-3-ethylurea] | 100% | – | – | – | – | mortality at 100 ppm (Musca domestica; application rate 100 ppm, adults, 2 days): ≥ 80%; mortality at 100 ppm (Lucilia cuprina larvae; application rate 100 ppm, larvae in minced horse meat, 2 days): ≥ 80%; mortality at 100 ppm (Ctenocephalides felis; application rate 100 ppm in cattle blood, adult unfed fleas, 2 days): ≥ 80%; mortality at 0.02 mg (Boophilus microplus [1]; application rate 20 μg/animal injected, adult engorged female ticks, 7 days): ≥ 80%; mortality at 100 ppm (Boophilus microplus [2]; application rate 100 ppm, adult engorged female ticks immersed one minute, 7 days): ≥ 80% |
| NC1CCCc2cc(C3=NOC(c4cc(Cl)cc(Cl)c4)(C(F)(F)F)C3)ccc21 (centres unmarked) [Example 3-211, 6-[5-(3,5-dichlorophenyl)-5-(trifluoromethyl)-4,5-dihydroisoxazol-3-yl]-1,2,3,4-tetrahydronaphthalen-1-amine] | 100% | – | – | – | ≥ 80% | – |
| CCNC(=O)N1CCc2cc(C3=NOC(c4cc(Cl)cc(Cl)c4)(C(F)(F)F)C3)ccc21 (centres unmarked) [Example 3-638, 5-[5-(3,5-dichlorophenyl)-5-(trifluoromethyl)-4,5-dihydroisoxazol-3-yl]-N-ethyl-2,3-dihydro-1H-indol-1-carboxamide] | 100% | ≥ 80% | ≥ 80% | ≥ 80% | ≥ 80% | – |

From patent US20110071141A1, “Pesticidial Condensed-Ring Aryl Compounds” (Bayer CropScience AG, priority 2008, published 2011)
